Tests used:
Experiment in all cases: relative viability (nuclei count vs DMSO), 5 days (fraction); higher = more cells survive
NCI-H661 = tested on: NCI-H661
Outline: (§1)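 Lung cancer cell lines were seeded in 1536-well plates and dosed by pin tool the next day, with either a single drug or a fixed anchor-drug dose combined with five library-drug doses (not always all listed) spaced in √10 steps. Five days later, one step fixed the cells and stained their nuclei (final 0.05% Triton X-100, 1% formaldehyde, 1 ug/ml Hoechst), and nuclei were counted on 4× images. Relative viability is the nuclei count in treated wells divided by the count in vehicle wells, and each value is the median of duplicate plates.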

NCI-H1792 = tested on: NCI-H1792
Outline: as §1

HCC-15 = tested on: HCC-15
Outline: as §1

H3255 = tested on: H3255
Outline: as §1

NCI-H2023 = tested on: NCI-H2023
Outline: as §1

NCI-H520 = tested on: NCI-H520
Outline: as §1

NCI-H727 = tested on: NCI-H727
Outline: as §1

201T = tested on: 201T
Outline: as §1

NCI-H650 = tested on: NCI-H650
Outline: as §1

LC-2-ad = tested on: LC-2-ad
Outline: as §1

NCI-H1915 = tested on: NCI-H1915
Outline: as §1

NCI-H1944 = tested on: NCI-H1944
Outline: as §1

ABC-1 = tested on: ABC-1
Outline: as §1

PC-3 [JPC-3] = tested on: PC-3 [JPC-3]
Outline: as §1

NCI-H596 = tested on: NCI-H596
Outline: as §1

NCI-H1650 = tested on: NCI-H1650
Outline: as §1

NCI-H460 = tested on: NCI-H460
Outline: as §1

CAL-12T = tested on: CAL-12T
Outline: as §1

NCI-H2087 = tested on: NCI-H2087
Outline: as §1

LCLC-97TM1 = tested on: LCLC-97TM1
Outline: as §1

A-427 = tested on: A-427
Outline: as §1

NCI-H441 = tested on: NCI-H441
Outline: as §1

NCI-H1651 = tested on: NCI-H1651
Outline: as §1

BEN = tested on: BEN
Outline: as §1

`Clc1ccc(Nc2nnc(Cc3ccncc3)c3ccccc23)cc1` [Vatalanib] + O=C(c1cc(Cc2n[nH]c(=O)c3ccccc23)ccc1F)N1CCN(C(=O)C2CC2)CC1 [Olaparib] (partner 8 µM) showed a relative viability (NCI-H661; first compound 0.04 µM) of 0.769, a relative viability (NCI-H661; first compound 0.1265 µM) of 0.757 and a relative viability (NCI-H661; first compound 0.4 µM) of 0.788. The relative viability (NCI-H661; first compound 1.265 µM) was 0.73, the relative viability (NCI-H661; first compound 4 µM) was 0.706 and the relative viability (NCI-H1792; first compound 0.04 µM) was 0.52. The relative viability (NCI-H1792; first compound 0.1265 µM) was 0.384, the relative viability (NCI-H1792; first compound 0.4 µM) was 0.399 and the relative viability (NCI-H1792; first compound 1.265 µM) was 0.344. For the same compound, the relative viability (NCI-H1792; first compound 4 µM) was 0.413, the relative viability (HCC-15; first compound 0.04 µM) was 0.795 and the relative viability (HCC-15; first compound 0.1265 µM) was 0.723. The relative viability (HCC-15; first compound 0.4 µM) was 0.781, the relative viability (HCC-15; first compound 1.265 µM) was 0.684 and the relative viability (HCC-15; first compound 4 µM) was 0.696. For the same compound, the relative viability (H3255; first compound 0.04 µM) was 0.555, the relative viability (H3255; first compound 0.1265 µM) was 0.579 and the relative viability (H3255; first compound 0.4 µM) was 0.596. It also gave a relative viability (H3255; first compound 1.265 µM) of 0.576, a relative viability (H3255; first compound 4 µM) of 0.543 and a relative viability (NCI-H2023; first compound 0.04 µM) of 0.403. For the same compound, the relative viability (NCI-H2023; first compound 0.1265 µM) was 0.444, the relative viability (NCI-H2023; first compound 0.4 µM) was 0.447 and the relative viability (NCI-H2023; first compound 1.265 µM) was 0.48. It also gave a relative viability (NCI-H2023; first compound 4 µM) of 0.422, a relative viability (NCI-H520; first compound 0.04 µM) of 0.392 and a relative viability (NCI-H520; first compound 0.1265 µM) of 0.361. For the same compound, the relative viability (NCI-H520; first compound 0.4 µM) was 0.37, the relative viability (NCI-H520; first compound 1.265 µM) was 0.283 and the relative viability (NCI-H520; first compound 4 µM) was 0.34. For the same compound, the relative viability (NCI-H727; first compound 0.1265 µM) was 0.772, the relative viability (NCI-H727; first compound 0.4 µM) was 0.761 and the relative viability (NCI-H727; first compound 1.265 µM) was 0.818. For the same compound, the relative viability (NCI-H727; first compound 4 µM) was 0.758, the relative viability (201T; first compound 0.04 µM) was 0.833 and the relative viability (201T; first compound 0.1265 µM) was 0.83. It also gave a relative viability (201T; first compound 0.4 µM) of 0.904, a relative viability (201T; first compound 1.265 µM) of 0.842 and a relative viability (201T; first compound 4 µM) of 0.83. The relative viability (NCI-H650; first compound 0.04 µM) was 0.377, the relative viability (NCI-H650; first compound 0.1265 µM) was 0.378 and the relative viability (NCI-H650; first compound 0.4 µM) was 0.414. For the same compound, the relative viability (NCI-H650; first compound 1.265 µM) was 0.394, the relative viability (NCI-H650; first compound 4 µM) was 0.361 and the relative viability (LC-2-ad; first compound 0.04 µM) was 0.661. The relative viability (LC-2-ad; first compound 0.1265 µM) was 0.67, the relative viability (LC-2-ad; first compound 0.4 µM) was 0.686 and the relative viability (LC-2-ad; first compound 1.265 µM) was 0.694. For the same compound, the relative viability (LC-2-ad; first compound 4 µM) was 0.69, the relative viability (NCI-H1915; first compound 0.04 µM) was 0.258 and the relative viability (NCI-H1915; first compound 0.1265 µM) was 0.265. The relative viability (NCI-H1915; first compound 0.4 µM) was 0.275, the relative viability (NCI-H1915; first compound 1.265 µM) was 0.233 and the relative viability (NCI-H1915; first compound 4 µM) was 0.253. It also gave a relative viability (NCI-H1944; first compound 0.04 µM) of 0.408, a relative viability (NCI-H1944; first compound 0.1265 µM) of 0.403 and a relative viability (NCI-H1944; first compound 0.4 µM) of 0.417. The relative viability (NCI-H1944; first compound 1.265 µM) was 0.392, the relative viability (NCI-H1944; first compound 4 µM) was 0.384 and the relative viability (ABC-1; first compound 0.04 µM) was 0.642. It also gave a relative viability (ABC-1; first compound 0.1265 µM) of 0.689, a relative viability (ABC-1; first compound 0.4 µM) of 0.421 and a relative viability (ABC-1; first compound 4 µM) of 0.869. For the same compound, the relative viability (PC-3 [JPC-3]; first compound 0.04 µM) was 1.15, the relative viability (PC-3 [JPC-3]; first compound 0.1265 µM) was 1.02 and the relative viability (PC-3 [JPC-3]; first compound 0.4 µM) was 0.786. It also gave a relative viability (PC-3 [JPC-3]; first compound 1.265 µM) of 1.04, a relative viability (PC-3 [JPC-3]; first compound 4 µM) of 1.1 and a relative viability (NCI-H596; first compound 0.04 µM) of 0.751. The relative viability (NCI-H596; first compound 0.1265 µM) was 0.741, the relative viability (NCI-H596; first compound 0.4 µM) was 0.63 and the relative viability (NCI-H596; first compound 1.265 µM) was 0.652. The relative viability (NCI-H596; first compound 4 µM) was 0.765, the relative viability (NCI-H1650; first compound 0.04 µM) was 0.985 and the relative viability (NCI-H1650; first compound 0.1265 µM) was 0.734. For the same compound, the relative viability (NCI-H1650; first compound 0.4 µM) was 0.852, the relative viability (NCI-H1650; first compound 1.265 µM) was 0.74 and the relative viability (NCI-H1650; first compound 4 µM) was 0.798. For the same compound, the relative viability (NCI-H460; first compound 0.04 µM) was 0.4, the relative viability (NCI-H460; first compound 0.1265 µM) was 0.44 and the relative viability (NCI-H460; first compound 1.265 µM) was 0.494. The relative viability (NCI-H460; first compound 4 µM) was 0.377, the relative viability (CAL-12T; first compound 0.04 µM) was 0.692 and the relative viability (CAL-12T; first compound 0.1265 µM) was 0.645. The relative viability (CAL-12T; first compound 0.4 µM) was 0.773, the relative viability (CAL-12T; first compound 1.265 µM) was 0.697 and the relative viability (CAL-12T; first compound 4 µM) was 0.672. The relative viability (NCI-H2087; first compound 0.04 µM) was 0.461, the relative viability (NCI-H2087; first compound 0.1265 µM) was 0.542 and the relative viability (NCI-H2087; first compound 0.4 µM) was 0.682. It also gave a relative viability (NCI-H2087; first compound 1.265 µM) of 0.519, a relative viability (NCI-H2087; first compound 4 µM) of 0.633 and a relative viability (LCLC-97TM1; first compound 0.04 µM) of 0.357. The relative viability (LCLC-97TM1; first compound 0.1265 µM) was 0.375, the relative viability (LCLC-97TM1; first compound 0.4 µM) was 0.338 and the relative viability (LCLC-97TM1; first compound 1.265 µM) was 0.39. For the same compound, the relative viability (LCLC-97TM1; first compound 4 µM) was 0.345, the relative viability (A-427; first compound 0.04 µM) was 0.664 and the relative viability (A-427; first compound 0.1265 µM) was 0.729. The relative viability (A-427; first compound 0.4 µM) was 0.768, the relative viability (A-427; first compound 4 µM) was 0.666 and the relative viability (NCI-H441; first compound 0.04 µM) was 0.546. For the same compound, the relative viability (NCI-H441; first compound 0.1265 µM) was 0.62, the relative viability (NCI-H441; first compound 0.4 µM) was 0.51 and the relative viability (NCI-H441; first compound 1.265 µM) was 0.561. The relative viability (NCI-H441; first compound 4 µM) was 0.553, the relative viability (NCI-H1651; first compound 0.04 µM) was 0.19 and the relative viability (NCI-H1651; first compound 0.1265 µM) was 0.184. The relative viability (NCI-H1651; first compound 0.4 µM) was 0.195, the relative viability (NCI-H1651; first compound 1.265 µM) was 0.202 and the relative viability (NCI-H1651; first compound 4 µM) was 0.179. For the same compound, the relative viability (BEN; first compound 0.04 µM) was 1.03, the relative viability (BEN; first compound 0.1265 µM) was 1.01 and the relative viability (BEN; first compound 0.4 µM) was 1.31. For the same compound, the relative viability (BEN; first compound 1.265 µM) was 1.04 and the relative viability (BEN; first compound 4 µM) was 0.877.

Reference: the supplement of paper PMC10307832
